According to PMC7822123, “A Chemosensory Protein Detects Antifeedant in Locust (Locusta migratoria)” (Insects, 2020):
“Also recorded” adds a separate entry of the source. Like-named read-outs stand apart in the source and are kept apart here.

What was measured:
[1] = biological target: T1, recombinant LmigCSPIII (Locusta migratoria, UniProt Q3LB86); assay: Fluorescent competitive binding assay with 1-NPN as reporter; conditions: for binding affinity to LmigCSPIII (in words): among 78 tested compounds
Procedure: Compounds (Table 2) used in the binding assay were purchased from Sigma (St. Louis, MO, USA) and were of reagent grade. Ligand binding specificity was measured with a fluorescent assay on an FS-55 emission fluorescence spectrometer (Perkin-Elmer, Waltham, MA, USA), as previously described. […] The recombinant protein was dissolved in 50 mM Tris-Buffer (pH 7.4) and titrated with aliquots of 1 mM methanol solutions of the ligands to final concentrations of […]. The florescent probe 1-NPN was excited at 337 nm and emission spectra were recorded between 380 nm and 440 nm. We used Graphpad Prism 5 software (Graphpad Software, San Diego, CA, USA) to calculate dissociation constants and draw the binding curves.

[2] = biological target: T1, recombinant LmigCSPIII; assay: as above; conditions: at a concentration of 10 µM
[3] = system: Locusta migratoria fourth instar nymphs; assay: Dual-choice feeding assay, feeding response with intact or excised antennae; assay type: in vivo
Procedure: For the role of antenna or mouthparts in the detection of AMCAL, a dual-choice experiment was performed. Newly molted fourth instar locusts of similar weights were anesthetized on ice for several minutes. Antennae were carefully removed with fine scissors, and then the locusts were fed with fresh corn leaves for 24 h. The locusts were then placed in feeding boxes, each of which contained two pieces of corn leaves of the same size of 4 × 3 cm, one treated with AMCAL in solvent, and the other one treated with solvent alone. The two pieces of corn leaves were placed about 12 cm apart. Feeding response (FR) was defined as follows: a leaf that was ingested, regardless of amount, was scored as 1, whereas no consumption was scored as 0. The experimental duration was about 1 h. When approximately 50% of the control foliage had been consumed, the experiment was terminated, and the feeding amount was determined as described above.

[4] = system: Locusta migratoria fourth instar nymphs; assay: Feeding bioassay: amount consumed and feeding deterrence index; assay type: in vivo
Procedure: New emerged fourth instar locust nymphs were starved 2 h before being introduced into a transparent plastic box (14 cm diameter, 8 cm high). For the non-choice experiment, the locusts were then supplied with two pieces of corn leaf (3 × 5 cm) of the same weight. One piece of the leaf was treated with an acetone solution of α-amylcinnamaldehyde (AMCAL) after the acetone evaporated completely, and the control leaf was just treated with same amount of actone. The natural concentrations of AMCAL found in non-host plants is usually less than 0.1% in weight. According to this, acetone solutions of AMCAL at concentrations of […] were used to treat corn leaves with a final concentration of 100 μg/cm^2, 50 μg/cm^2, 10 μg/cm^2, or 1 μg/cm^2, respectively.
Food consumption (S) was determined by the fresh/dry weight method as follows: a fresh corn leaf was cut in half from the main vein and weighted separately; one half was dried at 100 °C for 2 h to calculate fresh/dry weight ratio, calculated as R [34]; the other half, whose fresh weight was S1, was reserved for the feeding experiment. After feeding duration, the residual consumed leaf was dried and weighed as above, and the dry weight was labelled as S2. Food consumption was calculated as: S = S1/R − S2.
(§1) For the dual-choice experiment, the feeding deterrence index (FDI) was calculated using the formula: FDI = (C − T)/(C + T), where C and T indicated control and treated leaf consumption weights, respectively. For non-choice experiment, the FDI was calculated using the formula: FDI = (C − T)/C. A regression curve line against feeding deterrence index was created by Graphpad Prism 9 software (Graphpad Software, San Diego, CA, USA). The DC50 was defined as the concentration of AMCAL that halved the value of the feeding deterrence index.

[5] = system: Locusta migratoria fourth instar nymphs; assay: Dual-choice feeding assay with LmigCSPIII knockdown (dsRNA) and H2O-injected locusts; assay type: in vivo
Procedure: as §1
Double-stranded RNA was synthesized using the T7 RiboMAX™Express RNAi System (Promega, Madison, WI, USA), according to the manufacturer’s protocol. Briefly, we designed degenerate primers with a T7 promoter (Table 1) at the 5′ end based on an alignment of multiple LmigCSPIII sequences. The PCR-amplified fragment was purified and used as a template in the transcription reactions. After removing the DNA template and single-stranded RNA using a nuclease, we quantified the newly synthesized dsRNA and adjusted its concentration to 2.5 µg/µL. Locusts were anaesthetized on ice for easier handling during the injection process. dsRNA (2 µL) or DEPC (Diethy Pyrocarbonate) treated water (2 µL, Sangon Biotech) was injected into the dorsal intrasegmental membrane between the third and fourth abdominal segments of newly-molted third or fourth instar locusts using a microsyringe (Narishige, Tokyo, Japan), similarly to previous experiments.
The treatments and calculation methods for detecting the effects of suppression of LmigCSPIII on locusts are similar to in the dual-choice experiment.
To determine the effects of RNAi of LmigCSPIII on its role in detecting AMCAL, we created mutants by injecting with dsRNA of LmigCSPIII into fourth instar nymphs within 2 days after molting. These locusts were then provided with the corn leaves treated with AMCAL or solvent 72 h after injection. The duration of the experiment was 2 h.

[6] = system: Locusta migratoria nymphs; conditions: third instar, 100 μg/cm^2, after 3 or 4 days, vs control, p < 0.001
[7] = system: desert locust; design: method as in PMID 12770479; conditions: 7 µg/g body weight; cited from earlier work
[8] = criterion for being regarded as able to bind, Figure 4, read-out: IC50 (concentration of ligand that halved the initial fluorescence of 1-NPN)

T1 sequence (Q3LB86 entry or part of it): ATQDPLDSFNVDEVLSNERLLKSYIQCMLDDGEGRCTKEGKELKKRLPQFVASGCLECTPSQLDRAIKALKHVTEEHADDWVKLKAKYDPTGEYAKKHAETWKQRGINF

Row | SMILES | IC50 [1] [µM] | IC50 [1, 8] [µM] | other results
1 | O=Cc1ccccc1 [Benzaldehyde] | < 20 | – | –
2 | OC1CCCCC1 [Cyclohexanol] | < 20 | – | –
3 | CCCCCCCCCCCCCCCCO [Hexadecanol] | – | < 20 | –
4 | Oc1ccccc1 [Phenol] | < 20 | – | –
5 | Nc1cccc2cc3ccccc3cc12 [1-aminoanthracene] | – | – | binding affinity to LmigCSPIII (in words) [1]: strongest affinity
6 | CCCCCC(C)=O [2-heptanone] | – | < 20 | displacement of 1-NPN from LmigCSPIII [2]: able to displace 1-NPN
7 | CC(C)CCO [3-Methyl-1-butanol] | – | < 20 | Kd ([1]; calculated from IC50 of 1-NPN displacement, read-out: dissociation constant (KD) of competitor): 6.02 ± 0.17 µM
8 | CCCCOC(=O)c1ccccc1C(=O)OCCCC [Dibutyl phthalate] | < 20 | – | –
9 | CC(O)c1ccccc1 (racemic) [DL-sec-phenethyl alcohol] | – | < 20 | –
10 | COc1ccccc1O [Guaicacol] | – | < 20 | –
11 | CCCCC/C(C=O)=C/c1ccccc1 [AMCAL, α-amylcinnamaldehyde] | – | < 20 | binding affinity to LmigCSPIII (in words) [1]: strongest affinity; also recorded: highest affinity; Feeding response (FR) to treated leaves ([3]; 50 μg/cm^2, antennae excised): 45%; Feeding response (FR) to treated leaves ([3]; 50 μg/cm^2, antennae intact): 47%; mean consumption of food containing the chemical ([4]; 1 μg/cm^2, p > 0.05, Dunnett test): slight and insignificant decrease; mean consumption of food containing the chemical ([4]; 10 μg/cm^2, p < 0.01, Dunnett test): Significant feeding inhibition; DC50 (concentration that halved the feeding deterrence index) ([4]; from regression curve of feeding deterrence index, Figure 5D): 12 μg/cm^2; feeding deterrence index (FDI) ([5]; 1 μg/cm^2, RNAi group): −2%; feeding deterrence index (FDI) ([5]; 10 μg/cm^2, control group (H2O-injected locusts)): 50%; feeding deterrence index (FDI) ([5]; 10 μg/cm^2, locusts injected with dsRNA of LmigCSPIII): 22%; feeding deterrence index (FDI) ([5]; 50 μg/cm^2, RNAi group): 69%; weight increase of nymphs [6]: significantly less than that of the control group
12 | c1ccc(Nc2cccc3ccccc23)cc1 [1-NPN, N-phenyl-1-naphthylamine, reference compound] | – | – | Kd [1]: 3.3 µM
13 | C=C(C)C(=O)OCCCCCCCCCCCC [Dodecyl 2-methylacrylate] | – | < 20 | –
14 | C/C=C(\C)C(=O)O[C@H]1C[C@@H](OC(C)=O)[C@@]2(C(=O)OC)CO[C@H]3[C@@H](O)[C@@](C)([C@]45O[C@@]4(C)[C@H]4C[C@@H]5O[C@@H]5OC=C[C@@]54O)[C@H]4[C@]1(CO[C@]4(O)C(=O)OC)[C@@H]32 [azadirachtin] | – | – | physiological effects in the desert locust [7]: reduces fitness and fertility, and interferes with molting
15 | CCCCCCCCCCCCCCCO [Pentadecanol] | – | < 20 | –
16 | CCCCCCCC/C=C\CCCCCCCC(N)=O [oleamide, Oleamide] | < 20 | – | binding affinity to LmigCSPIII (in words) [1]: quite high binding affinity
17 | CCC/C=C/C=O [trans-2-hexenal, trans-2-Hexenal] | < 20 | – | displacement of 1-NPN from LmigCSPIII [2]: able to displace 1-NPN
18 | CCOC(=O)c1ccccc1C(=O)OCC [Diethyl phthalate] | < 20 | – | –
19 | N#CCc1ccccc1 [Benzeneacetonitrile] | < 20 | – | –
20 | CCCCCCCCCCCCCCCCCO [Heptadecanol] | – | < 20 | –
21 | Cc1cnc(C)cn1 [2,5-Dimetylpyrazine] | – | < 20 | –
